In ChEMBL document CHEMBL3885861, “Open TG-GATES”:

Species: Rattus norvegicus
Assay: Open TG-GATES - Regimen: Single
Format: toxicity, organism-based, Sprague-Dawley
Set-up: regimen Single, gender Male, age 6 weeks
Conditions: in vivo, po, 10 mg/kg, route gavage, dose level Middle; for APTT / Bas / Eos / Fbg / Hb / Ht / Lym / MCH / MCHC / MCV / Mono / Neu / PT / Plat / RBC / Ret / WBC: tissue Blood; for KIDNEY_L / KIDNEY_R / KIDNEY_TOTAL: tissue Kidney; for LIVER: tissue Liver; for A/G / ALP / ALT / AST / BUN / CRE / Ca / Cl / DBIL / GLC / IP / K / LDH / Na / PL / RALB / TBIL / TC / TG / TP / gamma-GTP: tissue Plasma

## CN(C)CCC(c1ccc(Cl)cc1)c1ccccn1 (configuration not stated) [CHLORPHENIRAMINE]
3 h
  TERMINAL_BW: 196.8 g
  APTT: 19.7 s
  Bas: 0%
  Eos: 0.4%
  Fbg: 295.8 mg/dL
  Hb: 13.5 g/dL
  Ht: 42%
  Lym: 77.4%
  MCH: 21.3 pg
  MCHC: 32.1%
  MCV: 66.1 fL
  Mono: 3%
  Neu: 18.2%
  PT: 14.7 s
  Plat: 126.4 x10_4/uL
  RBC: 634 x10_4/ul
  Ret: 9.7%
  WBC: 73.4 x10_2/uL
  KIDNEY_L: 0.8 g
  KIDNEY_R: 0.8 g
  KIDNEY_TOTAL: 1.6 g
  LIVER: 9 g
  A/G: 0.9
  ALP: 1551 IU/L
  ALT: 47.4 IU/L
  AST: 74.6 IU/L
  BUN: 9.2 mg/dL
  CRE: 0.2 mg/dL
  Ca: 10.9 mg/dL
  Cl: 107.6 meq/L
  DBIL: 0.006 mg/dL
  GLC: 180.2 mg/dL
  IP: 10.3 mg/dL
  K: 4.1 meq/L
  LDH: 200.6 IU/L
  Na: 144.6 meq/L
  PL: 156 mg/dL
  RALB: 2.6 g/dL
  TBIL: 0.046 mg/dL
  TC: 84.6 mg/dL
  TG: 75 mg/dL
  TP: 5.5 g/dL
  gamma-GTP: 1 IU/L
6 h
  TERMINAL_BW: 195.1 g
  APTT: 21.5 s
  Bas: 0%
  Eos: 1%
  Fbg: 297 mg/dL
  Hb: 13.2 g/dL
  Ht: 41%
  Lym: 74.4%
  MCH: 20.6 pg
  MCHC: 32.2%
  MCV: 64 fL
  Mono: 3%
  Neu: 20.8%
  PT: 14.9 s
  Plat: 129.3 x10_4/uL
  RBC: 641.2 x10_4/ul
  Ret: 8.8%
  WBC: 74.4 x10_2/uL
  KIDNEY_L: 0.8 g
  KIDNEY_R: 0.9 g
  KIDNEY_TOTAL: 1.7 g
  LIVER: 8.4 g
  A/G: 0.9
  ALP: 1438.8 IU/L
  ALT: 42.2 IU/L
  AST: 73.4 IU/L
  BUN: 7.8 mg/dL
  CRE: 0.2 mg/dL
  Ca: 10.5 mg/dL
  Cl: 107 meq/L
  DBIL: 0.006 mg/dL
  GLC: 177.4 mg/dL
  IP: 10.1 mg/dL
  K: 4.2 meq/L
  LDH: 176 IU/L
  Na: 142.6 meq/L
  PL: 140.6 mg/dL
  RALB: 2.5 g/dL
  TBIL: 0.04 mg/dL
  TC: 80.8 mg/dL
  TG: 42.6 mg/dL
  TP: 5.5 g/dL
  gamma-GTP: 1.6 IU/L
9 h
  TERMINAL_BW: 192.7 g
  APTT: 17.7 s
  Bas: 0%
  Eos: 1%
  Fbg: 292.6 mg/dL
  Hb: 13.3 g/dL
  Ht: 41.3%
  Lym: 76.2%
  MCH: 20.8 pg
  MCHC: 32.3%
  MCV: 64.3 fL
  Mono: 1.8%
  Neu: 20.6%
  PT: 15.1 s
  Plat: 123.4 x10_4/uL
  RBC: 643.8 x10_4/ul
  Ret: 8.5%
  WBC: 67.8 x10_2/uL
  KIDNEY_L: 0.9 g
  KIDNEY_R: 0.9 g
  KIDNEY_TOTAL: 1.8 g
  LIVER: 7.5 g
  A/G: 0.9
  ALP: 1406.4 IU/L
  ALT: 35.2 IU/L
  AST: 69 IU/L
  BUN: 7.2 mg/dL
  CRE: 0.1 mg/dL
  Ca: 10.4 mg/dL
  Cl: 105.6 meq/L
  DBIL: 0.008 mg/dL
  GLC: 162 mg/dL
  IP: 10.4 mg/dL
  K: 4 meq/L
  LDH: 145.2 IU/L
  Na: 142.4 meq/L
  PL: 131.2 mg/dL
  RALB: 2.5 g/dL
  TBIL: 0.054 mg/dL
  TC: 80 mg/dL
  TG: 37.8 mg/dL
  TP: 5.5 g/dL
  gamma-GTP: 1.4 IU/L
24 h
  TERMINAL_BW: 209.2 g
  APTT: 21.6 s
  Bas: 0%
  Eos: 0.8%
  Fbg: 287.6 mg/dL
  Hb: 12.5 g/dL
  Ht: 38.8%
  Lym: 76.4%
  MCH: 20.7 pg
  MCHC: 32.4%
  MCV: 63.9 fL
  Mono: 3.8%
  Neu: 18.2%
  PT: 14.8 s
  Plat: 118.2 x10_4/uL
  RBC: 606.6 x10_4/ul
  Ret: 8.5%
  WBC: 79.8 x10_2/uL
  KIDNEY_L: 0.9 g
  KIDNEY_R: 0.9 g
  KIDNEY_TOTAL: 1.7 g
  LIVER: 9 g
  A/G: 0.9
  ALP: 1569.6 IU/L
  ALT: 46.4 IU/L
  AST: 77.8 IU/L
  BUN: 14.8 mg/dL
  CRE: 0.2 mg/dL
  Ca: 10.8 mg/dL
  Cl: 106.6 meq/L
  DBIL: 0.01 mg/dL
  GLC: 184.2 mg/dL
  IP: 8.2 mg/dL
  K: 4.3 meq/L
  LDH: 132.2 IU/L
  Na: 142.8 meq/L
  PL: 142.8 mg/dL
  RALB: 2.6 g/dL
  TBIL: 0.04 mg/dL
  TC: 76.4 mg/dL
  TG: 82.6 mg/dL
  TP: 5.5 g/dL
  gamma-GTP: 1.2 IU/L
